Measured values published in PMC5473904, “Epigenetic and antitumor effects of platinum(IV)-octanoato conjugates” (Scientific Reports, 2017).

Legend:
[1] = tested on: HDAC enzymes in HCT-116 cells; experiment: HDAC fluorimetric cellular activity assay; type: cell-based, human; details: 1 µM
Method: These epigenetic processes consist in downregulation of HDACs and yet other biochemical processes triggered by VPA released in cells by the reduction of the Pt(IV) prodrug. Moreover, it has also been shown[15] that non-branched MCFAs may act as HDAC inhibitors. […] HDAC activity was analyzed in HCT-116 cells and confirmed by an independent set of experiments on A2780 cells (data not shown) by using a commercial HDAC fluorimetric cellular activity kit as described in the section Materials and methods.
Figure 3 Activity of HDAC enzymes in HCT-116 cells treated with the compounds tested in the present work; their concentration was 1 µM except the concentration of free OA, which was 1 mM. […] The data represent a mean from three independent experiments, each performed in quadruplicate. The error bars are the SDs.
The activity of HDAC enzymes was analyzed in HCT-116 cells treated with compounds tested in the present work (1 µM). […] The activity of HDAC was analyzed using the HDAC fluorimetric cellular activity assay kit (Enzo Life Sciences; Farmingdale, NY) in the whole cells according to manufacturer’s instructions. […] The plates were scanned on a fluorescence reader Infinite 200 (TECAN) (360 nm excitation, 460 nm emission).

[2] = tested on: mitochondrial membrane potential Δψ m in HCT-116 cells; experiment: Mitochondrial membrane potential, TMRE staining and confocal microscopy; type: cell-based, human; details: HCT-116, 1 µM, 5 h
Method: The loss of Δψ m represents an early event in the apoptosis cascade that precedes the release of pro-apoptotic factors such as cytochrome c and the activation of effector caspases.
HCT-116 cells were seeded on glass bottom dishes (P50G-0-30-F, MatTek Co., Ashland, USA) at the density 3 × 10^5 cells per dish, cultured in RPMI-1640 medium (without phenol red) and incubated at 37 °C in a humidified 5% CO2 atmosphere overnight. The cells were subsequently treated with the compounds (1 μM) for 5 h. After this period, cells were washed twice with PBS and resuspended in staining medium (without Pt compound), supplemented with Hoechst 33258 and tetramethylrhodamine, ethyl ester (TMRE) from multiparametric apoptosis assay kit (Cayman Chemical, Michigan, USA) according to the manufacturer’s protocol. After 20 min of staining, the staining medium was replaced by a fresh medium (without staining dye and platinum compound).
Images of living cells were acquired with a Leica TSC SP-5X laser scanning confocal microscope (Leica Microsystems, Mannheim, Germany) using an HCX PL APO lambda blue 63.0 × 1.20 water UV objective lens corrected with an appropriate beam path (resolution 1024 × 1024, frequency 100 Hz). […] Quantification of the mean signal intensity associated with single cells was performed using software ImageJ v1.47, U.S. National Institutes of Health, Bethesda, Maryland, USA.

[3] = tested on: A2780cisR human ovarian carcinoma cells; design: method as in PMID 25888926; details: compared with Pt(IV)diOA value of Table 1; cited from earlier work
[4] = tested on: DNA methylation in HCT-116 cells; experiment: DNA methylation analysis (Imprint methylated DNA quantification kit); type: cell-based, human; details: HCT-116, 30 µM, 72 h
Method: Human colon adenocarcinoma cells HCT-116 were chosen as the model cellular system suitable for DNA methylation analysis because: (i) this human colorectal cancer cell line has been used as a prototypic model for analyses of the genetic basis of cancer, and the role of epigenetic changes in tumorigenesis; (ii) they have a propensity to both global DNA hypomethylation and to silence genes through promoter focal hypermethylation, [21]. HCT-116 cells were treated with the compounds at the concentrations indicated in Fig. 4A for 24 or 72 h and DNA was isolated for the complete methylation analysis as described in the experimental section. Decitabine (5-aza-2′-deoxycytidine), a hypomethylating agent which hypomethylates DNA by inhibiting DNMT, was used in these experiments as a […]. The IC50 values found for this agent in HCT-116 cells (the drug-treatment period was 72 h) was (7.5 ± 0.3) µM (Table 1).
Figure 4 Analysis of DNA methylation. (A) DNA was isolated from HCT-116 cells after the exposure to the agents at the concentrations indicated in the graph for 24 or 72 h. The levels of DNA methylation in the control was taken as 100%. The bars represent mean values from three independent experiments each performed in octuplicate. The error bars are the SDs. (B) DNMT activity in colon carcinoma cells HCT-116 treated for 24 h with the compounds tested in the present work. The DNMT activity in the control, untreated cells was taken as 100%. Error bars are the SDs and the stars at the top of bars denote a significant difference from the control with (*p < 0.05; **p < […]), calculated using […] student’s t-test. The bars represent mean values from three independent experiments, each performed in quadruplicate.
Human colon carcinoma cells (HCT-116) were seeded at the density 1.5 × 10^6 cells/dish. […] The DNA content in each sample was determined by UV spectrophotometry. DNA (200 ng) from the samples was loaded to the Imprint methylated DNA quantification kit (Sigma-Aldrich, USA). The level of methylated DNA was proportional to the absorbance measured at 450 nm.

## CC(=O)[O][Pt]([NH2])([NH2])([Cl])([Cl])[O]C(C)=O [Pt(IV)diAc, cis, cis, trans-[Pt(IV)(NH3)2Cl2(Ac)2]]
[1]
  Efficiency to inhibit HDAC activity: very small
[2]
  Reduction in the fraction of cells with an intact Δψ m relative to untreated control: no reduction

## CCCC(CCC)C(=O)[O][Pt]([NH2])([NH2])([Cl])([Cl])[O]C(=O)C(CCC)CCC [Pt(IV)diVPA, cis, cis, trans-[Pt(IV)(NH3)2Cl2(VPA)2]]
[3]
  IC50: 300 ± 100 nM

## N.N.[Cl][Pt][Cl] [cisplatin, reference compound]
[4]
  Change of DNA methylation: non-significant change
